According to patent US12577256B2, “Aryl receptor modulators and methods of making and using the same” (Nogra Pharma Limited, priority 2014, dated 2026):

Columns and labels:
AhR = target: T1, AhR (Homo sapiens, UniProt P35869); details: cited from earlier work
T1 sequence (P35869 11-848): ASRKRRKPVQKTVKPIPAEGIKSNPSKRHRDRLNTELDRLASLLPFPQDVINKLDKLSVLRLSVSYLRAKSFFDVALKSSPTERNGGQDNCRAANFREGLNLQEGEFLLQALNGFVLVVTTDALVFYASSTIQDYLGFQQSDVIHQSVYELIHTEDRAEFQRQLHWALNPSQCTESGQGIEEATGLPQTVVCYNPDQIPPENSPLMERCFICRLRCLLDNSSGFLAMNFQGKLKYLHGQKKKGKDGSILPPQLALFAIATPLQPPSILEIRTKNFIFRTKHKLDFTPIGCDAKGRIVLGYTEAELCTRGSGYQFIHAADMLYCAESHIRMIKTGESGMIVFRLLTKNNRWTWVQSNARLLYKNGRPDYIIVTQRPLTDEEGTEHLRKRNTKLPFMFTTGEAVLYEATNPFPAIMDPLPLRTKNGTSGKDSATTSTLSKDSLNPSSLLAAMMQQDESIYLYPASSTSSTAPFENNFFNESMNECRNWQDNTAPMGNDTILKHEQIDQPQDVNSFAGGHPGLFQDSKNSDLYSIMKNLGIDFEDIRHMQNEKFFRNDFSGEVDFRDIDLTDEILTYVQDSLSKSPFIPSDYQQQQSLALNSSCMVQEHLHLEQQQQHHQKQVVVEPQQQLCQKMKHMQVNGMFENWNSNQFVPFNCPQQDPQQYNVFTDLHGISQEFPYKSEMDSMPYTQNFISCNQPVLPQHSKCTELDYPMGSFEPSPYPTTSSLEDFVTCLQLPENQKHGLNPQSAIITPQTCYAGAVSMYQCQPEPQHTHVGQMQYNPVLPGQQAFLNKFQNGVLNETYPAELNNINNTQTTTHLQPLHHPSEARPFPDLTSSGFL

[1] = cited from earlier work
IFN-γ = IFN-γ RNA expression in anti-CD3/anti-CD28 stimulated PBMC (real-time PCR); type: cell-based, human; details: anti-CD3/anti-CD28, 100, 200 or 400 nM compound, 24 hours, RNA (FIG. 24)
Description: (§1) Peripheral blood mononuclear cells (PBMC), isolated from 3 healthy subjects, were isolated by density gradient centrifugation (Lymphoprep; Nycomed Pharma) from 5 mL heparinized blood samples. PBMC were resuspended in RPMI 1640 supplemented with 10% fetal calf serum at a concentration of 1×10^6 cells/mL, cultured in 24-well culture plates (Falcon Plastic) and stimulated with medium alone or anti-CD3/anti-CD28 (Miltenyi Biotec) antibodies with or without 100, 200, or 400 nM of AhR binding compounds (02, 04, 13, 15, 17, or 24), dimethyl sulfoxide or 6-formylindolo[3,2-b]cathazole (Ficz, 200 nM). Total RNA was extracted from cells cultured for 24 hours. For RNA preparation, cells were lysed in 1 mL of guanidium thiocyanate buffer and subjected to phenol/chloroform extraction using TRizol reagent (Invitrigen). The sample obtained was quantitated by absothance at 260 nm and complementary DNA (cDNA) was synthetized from […] of total RNA. cDNA was amplified using the following conditions: denaturation for 1 minute at 95° C.; annealing for 30 seconds at 58° C. for IFN-γ, and 60° C. for f3-actin; and followed by 30 seconds of extension at 72° C. […] IL-22 was evaluated using commercially available TaqMan probes (Applied Biosystems). β-actin (forward (SEQ ID NO. 3) 5′-[…]-3′, reverse (SEQ ID NO.4) 5′-[…]-3′) was used as a housekeeping gene. Gene expression was calculated using the AACt algorithm.

IL-22 = IL-22 RNA expression in anti-CD3/anti-CD28 stimulated PBMC (real-time PCR); type: cell-based, human; details: anti-CD3/anti-CD28, 100, 200 or 400 nM compound, 24 hours, RNA (FIG. 24)
Description: as §1

SMILES	activation of the AhR (AhR)	anti-inflammatory properties in vivo [1]	production of IFN-γ (IFN-γ)	production of IL-22 (IL-22)
Cc1oncc1C(=O)Nc1ccc(C(F)(F)F)cc1 [Leflunomide]	activates	–	–	–
C=CCn1nc(-c2ccc(OC)c(OC)c2)c2cccc(C(F)(F)F)c21 [SGA 360]	–	exhibits anti-inflammatory properties in vivo	–	–
COc1ccc(Cc2nc3ccc(C(F)(F)F)cc3s2)cc1OC [compound 15, 2-(3,4-dimethoxybenzyl)-6-(trifluoromethyl)benzo[d]thiazole]	–	–	decreasing	strongly increases
COc1cc(Nc2nc3ccccc3[nH]2)cc(OC)c1OC [compound 17, N (3,4,5-trimethoxyphenyl)-1H-benzo[d]imidazol-2-amine]	–	–	decreasing	strongly increases
